Data: ChEMBL document CHEMBL1132520, “Antimalarial activity of 3-hydroxyalkyl-2-methylene-propionic acid derivatives” (1999)
Calls of active or inactive are those of the source. The calls are words filed in the database; no cut-off is given here.

Assays:
Mus musculus [1] = test: Antimalarial activity against Plasmodium berghei evaluated in terms of mean survival time for mice (Mus musculus) at a dose of 80 mg/kg; assay type: functional
Plasmodium falciparum [2] = test: In vitro antimalarial activity for Plasmodium falciparum at 2.5 uM/well dose at 24 hrs in Schizont maturation assay; assay type: functional
Plasmodium falciparum [3] = test: In vitro inhibition of Plasmodium falciparum at 0.5 uM/well dose at 72 hrs in total parasite growth assay; assay type: functional
Plasmodium falciparum [4] = test: In vitro antimalarial activity for Plasmodium falciparum at 1 uM/well dose at 24 hrs in Schizont maturation assay; assay type: functional
Plasmodium falciparum [5] = test: In vitro antimalarial activity for Plasmodium falciparum at 100 uM/well dose at 24 hrs in Schizont maturation assay; assay type: functional
Plasmodium falciparum [6] = test: In vitro antimalarial activity for Plasmodium falciparum at 0.10 uM/well dose at 24 hrs in Schizont maturation assay; assay type: functional
Plasmodium falciparum [7] = test: In vitro antimalarial activity for Plasmodium falciparum at 0.50 uM/well dose at 24 hrs in Schizont maturation assay; assay type: functional
Plasmodium falciparum [8] = test: In vitro inhibition of Plasmodium falciparum at 50 uM/well dose at 72 hrs in total parasite growth assay; assay type: functional
Plasmodium falciparum [9] = test: In vitro inhibition of Plasmodium falciparum at 2.5 uM/well dose at 72 hrs in total parasite growth assay; assay type: functional
Mus musculus [10] = test: Antimalarial activity against Plasmodium berghei evaluated in terms of mean survival time for mice (Mus musculus) at a dose of 40 mg/kg; assay type: functional
Plasmodium falciparum [11] = test: In vitro antimalarial activity for Plasmodium falciparum at 10 uM/well dose at 24 hrs in Schizont maturation assay; assay type: functional
Mus musculus [12] = test: Anti-malarial activity against Plasmodium berghei evaluated in terms of mean survival time for mice (Mus musculus) at a dose of 20 mg/kg; assay type: functional
Mus musculus [13] = test: In vivo antimalarial activity against Plasmodium berghei in mice (Mus musculus); Inactive; assay type: functional, organism-based
Plasmodium falciparum [14] = test: In vitro inhibition of Plasmodium falciparum at 1.0 uM/well dose at 72 hrs in total parasite growth assay; assay type: functional
Plasmodium falciparum [15] = test: In vitro antimalarial activity for Plasmodium falciparum at 0.25 uM/well dose at 24 hrs in Schizont maturation assay; assay type: functional
Plasmodium falciparum [16] = test: In vitro inhibition of Plasmodium falciparum at 0.25 uM/well dose at 72 hrs in total parasite growth assay; assay type: functional
Mus musculus [17] = test: Antimalarial activity against Plasmodium berghei evaluated in terms of mean survival time for mice (Mus musculus) at a dose of 160 mg/kg; assay type: functional
Plasmodium falciparum [18] = test: In vitro inhibition of Plasmodium falciparum at 10 uM/well dose at 72 hrs in total parasite growth assay; assay type: functional
Plasmodium falciparum [19] = test: In vitro antimalarial activity for Plasmodium falciparum at 5 uM/well dose at 24 hrs in Schizont maturation assay; assay type: functional
Plasmodium falciparum [20] = test: In vitro inhibition of Plasmodium falciparum at 100 uM/well dose at 72 hrs in total parasite growth assay; assay type: functional
Plasmodium falciparum [21] = test: In vitro inhibition of Plasmodium falciparum at 5 uM/well dose at 72 hrs in total parasite growth assay; assay type: functional
Plasmodium falciparum [22] = test: In vitro growth inhibition against Plasmodium falciparum at a dose of 20 uM/well through total parasite growth inhibition assay over 72 hr; assay type: functional
Plasmodium falciparum [23] = test: In vitro antimalarial activity for Plasmodium falciparum at 20 uM/well dose at 24 hrs in Schizont maturation assay; assay type: functional
Plasmodium falciparum [24] = test: In vitro antimalarial activity for Plasmodium falciparum at 50 uM/well dose at 24 hrs in Schizont maturation assay; assay type: functional
Plasmodium falciparum [25] = test: In vitro inhibition of Plasmodium falciparum at 25 uM/well dose at 72 hrs in total parasite growth assay; assay type: functional
Plasmodium falciparum [26] = test: In vitro inhibition of Plasmodium falciparum at 5 uM/well dose at 72 hrs in total parasite growth assay; Not determined; assay type: functional
Plasmodium falciparum [27] = test: In vitro inhibition of Plasmodium falciparum at 8 uM/well dose at 72 hrs in total parasite growth assay; assay type: functional
Plasmodium falciparum [28] = test: In vitro antimalarial activity for Plasmodium falciparum at 32 uM/well dose at 24 hrs in Schizont maturation assay; assay type: functional
Plasmodium falciparum [29] = test: In vitro inhibition of Plasmodium falciparum at 16 uM/well dose at 72 hrs in total parasite growth assay; assay type: functional
Plasmodium falciparum [30] = test: In vitro antimalarial activity for chloroquine-resistant Plasmodium falciparum at a dose of 4 uM/well through Schizonts maturation assay over 24 hr; assay type: functional
Plasmodium falciparum [31] = test: In vitro antimalarial activity for chloroquine-resistant Plasmodium falciparum at 1 uM/well dose at 24 hrs in Schizont maturation assay; assay type: functional
Plasmodium falciparum [32] = test: In vitro antimalarial activity for Plasmodium falciparum at 2 uM/well dose at 24 hrs in Schizont maturation assay; assay type: functional
Plasmodium falciparum [33] = test: In vitro antimalarial activity for Plasmodium falciparum at 8 uM/well dose at 24 hrs in Schizont maturation assay; assay type: functional
Plasmodium falciparum [34] = test: In vitro antimalarial activity for Plasmodium falciparum at 16 uM/well dose at 24 hrs in Schizont maturation assay; assay type: functional
Plasmodium falciparum [35] = test: In vitro inhibition of Plasmodium falciparum at 4 uM/well dose at 72 hrs in total parasite growth assay; assay type: functional
Plasmodium falciparum [36] = test: In vitro antimalarial activity for chloroquine-resistant Plasmodium falciparum at 2 uM/well dose at 24 hrs in Schizont maturation assay; assay type: functional
Plasmodium falciparum [37] = test: In vitro inhibition of Plasmodium falciparum at 32 uM/well dose at 72 hrs in total parasite growth assay; assay type: functional
Plasmodium falciparum [38] = test: In vitro inhibition of Plasmodium falciparum at 64 uM/well dose at 72 hrs in total parasite growth assay; assay type: functional
Plasmodium falciparum [39] = test: In vitro antimalarial activity for chloroquine-resistant Plasmodium falciparum at 8 uM/well dose at 24 hrs in Schizont maturation assay; assay type: functional
Plasmodium falciparum [40] = test: In vitro antimalarial activity for chloroquine-resistant Plasmodium falciparum at 64 uM/well dose at 24 hrs in Schizont maturation assay; assay type: functional
Plasmodium falciparum [41] = test: In vitro antimalarial activity for chloroquine-resistant Plasmodium falciparum at 32 uM/well dose at 24 hrs in Schizont maturation assay; assay type: functional
Plasmodium falciparum [42] = test: In vitro inhibition of Plasmodium falciparum at 2 uM/well dose at 72 hrs in total parasite growth assay; assay type: functional
Plasmodium falciparum [43] = test: In vitro antimalarial activity for chloroquine-resistant Plasmodium falciparum at 16 uM/well dose at 24 hrs in Schizont maturation assay; assay type: functional
Plasmodium falciparum [44] = test: In vitro antimalarial activity for Plasmodium falciparum at 64 uM/well dose at 24 hrs in Schizont maturation assay; assay type: functional
Plasmodium falciparum [45] = test: In vitro antimalarial activity for Plasmodium falciparum at 4 uM/well dose at 24 hrs in Schizont maturation assay; assay type: functional
Mus musculus [46] = test: In vivo anti-malarial activity against Plasmodium berghei in mice (Mus musculus) at a dose of 16 mg/kg; Active; assay type: functional, organism-based; parameters: dose 16 mg/kg
Plasmodium falciparum [47] = test: In vitro inhibition of Plasmodium falciparum at 20 uM/well dose at 72 hrs in total parasite growth assay; assay type: functional
Mus musculus [48] = test: In vivo anti-malarial activity against Plasmodium berghei in mice (Mus musculus) at a dose of 80 mg/kg; Active; assay type: functional, organism-based; parameters: dose 80 mg/kg
Plasmodium falciparum [49] = test: In vitro antimalarial activity for Plasmodium falciparum at 500 uM/well dose at 24 hrs in Schizont maturation assay; assay type: functional

SMILES	Mean survival time (Mus musculus [1])	inhibition at 2.5 µM (Plasmodium falciparum [2])	PGI (Plasmodium falciparum [3])	inhibition at 1 µM (Plasmodium falciparum [4])	inhibition at 100 µM (Plasmodium falciparum [5])	inhibition at 0.1 µM (Plasmodium falciparum [6])	inhibition at 0.5 µM (Plasmodium falciparum [7])	PGI (Plasmodium falciparum [8])	PGI (Plasmodium falciparum [9])	Mean survival time (Mus musculus [10])	inhibition at 10 µM (Plasmodium falciparum [11])	Mean survival time (Mus musculus [12])	PGI (Plasmodium falciparum [14])	inhibition at 0.25 µM (Plasmodium falciparum [15])	PGI (Plasmodium falciparum [16])	Mean survival time (Mus musculus [17])	PGI (Plasmodium falciparum [18])	inhibition at 5 µM (Plasmodium falciparum [19])	PGI (Plasmodium falciparum [20])	inhibition at 20 µM (Plasmodium falciparum [23])	further results
COC(=O)C(CNC(C)C)C(O)c1ccc([N+](=O)[O-])cc1 (configuration not stated)	9.8 days	25%	0%	14%	100%	0%	0%	100%	15%	8.2 days	29%	7 days	10%	0%	0%	11.8 days	42.5%	29%	100%	80%	Activity (Mus musculus [13]): inactive; PGI (Plasmodium falciparum [21]): 25%; PGI (Plasmodium falciparum [22]): 92.5%; inhibition at 50 µM (Plasmodium falciparum [24]): 100%
C=C(C#N)C(O)c1ccccc1 (configuration not stated)		62.8%	8.6%	25.7%	100%	0%	8.6%		62.8%		80%		25.7%	0%			80%	65.7%	100%	85%	PGI (Plasmodium falciparum [25]): 85%; PGI (Plasmodium falciparum [26]): 65.7%
CCN(CC)CCCC(C)Nc1ccnc2cc(Cl)ccc12.O=P(O)(O)O.O=P(O)(O)O (configuration not stated) [CHLOROQUINE PHOSPHATE]				0%									16.7%								PGI (Plasmodium falciparum [27]): 100%; inhibition at 32 µM (Plasmodium falciparum [28]): 100%; PGI (Plasmodium falciparum [29]): 100%; inhibition at 4 µM (Plasmodium falciparum [30]): 39.4%; inhibition at 1 µM (Plasmodium falciparum [31]): 0%; inhibition at 2 µM (Plasmodium falciparum [32]): 16%; inhibition at 8 µM (Plasmodium falciparum [33]): 86.8%; inhibition at 16 µM (Plasmodium falciparum [34]): 100%; PGI (Plasmodium falciparum [35]): 91.7%; inhibition at 2 µM (Plasmodium falciparum [36]): 16%; PGI (Plasmodium falciparum [37]): 100%; PGI (Plasmodium falciparum [38]): 100%; inhibition at 8 µM (Plasmodium falciparum [39]): 86.8%; inhibition at 64 µM (Plasmodium falciparum [40]): 100%; inhibition at 32 µM (Plasmodium falciparum [41]): 100%; PGI (Plasmodium falciparum [42]): 58.3%; inhibition at 16 µM (Plasmodium falciparum [43]): 100%; inhibition at 64 µM (Plasmodium falciparum [44]): 100%; inhibition at 4 µM (Plasmodium falciparum [45]): 39.4%
C=C(C#N)C(O)c1cccnc1 (configuration not stated)	13.4 days	100%	55%	93%	100%	0%	50%	100%	82.5%	8.8 days	100%	6.4 days	77.5%	12%	20%	15.2 days	97.5%	100%	100%	100%	Activity (Mus musculus [46]): Active; PGI (Plasmodium falciparum [47]): 100%; Activity (Mus musculus [48]): Active; inhibition at 500 µM (Plasmodium falciparum [49]): 100%; PGI (Plasmodium falciparum [21]): 90%; inhibition at 50 µM (Plasmodium falciparum [24]): 100%
